Results as given in ChEMBL document CHEMBL1201862, “PubChem BioAssay data set” (2004).
Values joined by “and” are separate entries in the source; they are usually repeats but may differ in a detail not shown here. Equal values may be shown once. Active and inactive are the calls of the source.

Legend:
[1] = target: Glyceraldehyde-3-phosphate dehydrogenase (Homo sapiens, UniProt P04406)
[2] = target: T1, Alkaline phosphatase, tissue-nonspecific isozyme (Homo sapiens, UniProt P05186); assay: human TNAP enzyme inhibitors, SAR follow-up, biochemical, luminescent, dose response (AID 1056)
T1 sequence (P05186 whole entry): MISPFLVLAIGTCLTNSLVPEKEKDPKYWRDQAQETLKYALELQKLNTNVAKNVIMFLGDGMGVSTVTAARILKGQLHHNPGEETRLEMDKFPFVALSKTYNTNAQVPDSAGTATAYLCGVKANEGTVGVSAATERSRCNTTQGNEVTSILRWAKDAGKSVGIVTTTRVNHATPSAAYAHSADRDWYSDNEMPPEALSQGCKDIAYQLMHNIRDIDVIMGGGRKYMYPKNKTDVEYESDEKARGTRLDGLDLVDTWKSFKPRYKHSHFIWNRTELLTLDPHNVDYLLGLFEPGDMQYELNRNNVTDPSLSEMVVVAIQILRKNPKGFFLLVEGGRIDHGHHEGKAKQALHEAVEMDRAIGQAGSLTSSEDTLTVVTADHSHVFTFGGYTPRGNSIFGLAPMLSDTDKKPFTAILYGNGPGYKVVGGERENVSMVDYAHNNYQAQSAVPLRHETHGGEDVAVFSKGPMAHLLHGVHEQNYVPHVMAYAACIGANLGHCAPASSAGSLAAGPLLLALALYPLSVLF

[3] = target: Alkaline phosphatase, placental type (Homo sapiens, UniProt P05187); assay: PLAP enzyme inhibitors, confirmation, biochemical, luminescence (AID 1512); assay type: functional
Alkaline phosphatase, placental type, sequence (P05187 whole entry): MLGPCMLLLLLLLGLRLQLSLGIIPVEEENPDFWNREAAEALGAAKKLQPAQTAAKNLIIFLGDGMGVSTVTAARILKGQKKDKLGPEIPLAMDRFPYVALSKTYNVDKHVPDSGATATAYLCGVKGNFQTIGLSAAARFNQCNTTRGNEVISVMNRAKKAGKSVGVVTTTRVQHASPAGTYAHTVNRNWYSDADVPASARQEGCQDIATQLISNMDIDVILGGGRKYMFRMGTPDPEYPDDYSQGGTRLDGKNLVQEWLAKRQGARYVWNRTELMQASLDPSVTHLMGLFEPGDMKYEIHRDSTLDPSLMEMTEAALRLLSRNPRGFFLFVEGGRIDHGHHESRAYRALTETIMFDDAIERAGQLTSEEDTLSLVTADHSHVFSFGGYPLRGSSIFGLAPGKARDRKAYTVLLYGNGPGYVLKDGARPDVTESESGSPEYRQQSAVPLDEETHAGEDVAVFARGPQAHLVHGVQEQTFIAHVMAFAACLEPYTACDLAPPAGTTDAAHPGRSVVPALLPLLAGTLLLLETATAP

[4] = target: T2, Tyrosine-protein phosphatase non-receptor type 22 (Homo sapiens, UniProt Q9Y2R2); assay: LYP1 Fluorescent Assay using OMFP substrate for In Vitro dose response studies. [Related pubchem assays (depositor defined):AID1779, AID1784, AID435024]
T2 sequence (Q9Y2R2 whole entry): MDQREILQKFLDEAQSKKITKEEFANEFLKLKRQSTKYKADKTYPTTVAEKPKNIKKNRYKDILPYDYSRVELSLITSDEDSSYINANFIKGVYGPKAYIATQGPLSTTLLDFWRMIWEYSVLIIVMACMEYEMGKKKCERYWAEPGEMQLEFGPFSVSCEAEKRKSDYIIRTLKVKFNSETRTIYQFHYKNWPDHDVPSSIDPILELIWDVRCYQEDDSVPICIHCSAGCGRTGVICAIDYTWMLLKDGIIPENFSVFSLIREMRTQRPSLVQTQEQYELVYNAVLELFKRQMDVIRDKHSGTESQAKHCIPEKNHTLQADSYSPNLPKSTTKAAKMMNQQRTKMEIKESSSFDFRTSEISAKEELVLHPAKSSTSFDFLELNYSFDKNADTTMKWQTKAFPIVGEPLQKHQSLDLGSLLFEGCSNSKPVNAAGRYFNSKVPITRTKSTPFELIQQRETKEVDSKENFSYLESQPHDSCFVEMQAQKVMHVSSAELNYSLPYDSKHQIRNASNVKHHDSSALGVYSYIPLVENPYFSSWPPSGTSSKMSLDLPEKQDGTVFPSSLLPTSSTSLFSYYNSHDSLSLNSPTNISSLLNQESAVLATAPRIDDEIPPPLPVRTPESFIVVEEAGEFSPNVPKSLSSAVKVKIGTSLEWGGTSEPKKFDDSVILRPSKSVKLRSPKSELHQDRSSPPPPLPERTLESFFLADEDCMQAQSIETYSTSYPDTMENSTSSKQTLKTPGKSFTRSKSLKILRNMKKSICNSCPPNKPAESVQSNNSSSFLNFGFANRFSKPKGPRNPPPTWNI

[5] = target: T2, Tyrosine-protein phosphatase non-receptor type 22; assay type: functional
[6] = target: T3, Dual specificity protein phosphatase 6 (Rattus norvegicus, UniProt Q64346); assay: MKP-3 phosphatase inhibitors, primary screen, biochemical, rat enzyme, in vitro (AID 425)
T3 sequence (Q64346 whole entry): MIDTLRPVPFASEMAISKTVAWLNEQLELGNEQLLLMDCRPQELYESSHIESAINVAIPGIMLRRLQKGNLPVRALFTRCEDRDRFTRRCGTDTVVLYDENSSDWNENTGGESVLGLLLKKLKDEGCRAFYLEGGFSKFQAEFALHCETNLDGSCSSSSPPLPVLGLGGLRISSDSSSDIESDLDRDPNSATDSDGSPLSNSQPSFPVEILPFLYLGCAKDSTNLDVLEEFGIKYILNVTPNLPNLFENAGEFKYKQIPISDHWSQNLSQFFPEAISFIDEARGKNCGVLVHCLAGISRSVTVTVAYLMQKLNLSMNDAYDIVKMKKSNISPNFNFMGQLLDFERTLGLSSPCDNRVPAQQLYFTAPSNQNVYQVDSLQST

[7] = target: T4, Tyrosine-protein phosphatase non-receptor type 7 (Homo sapiens, UniProt P35236); assay type: functional
T4 sequence (P35236 whole entry): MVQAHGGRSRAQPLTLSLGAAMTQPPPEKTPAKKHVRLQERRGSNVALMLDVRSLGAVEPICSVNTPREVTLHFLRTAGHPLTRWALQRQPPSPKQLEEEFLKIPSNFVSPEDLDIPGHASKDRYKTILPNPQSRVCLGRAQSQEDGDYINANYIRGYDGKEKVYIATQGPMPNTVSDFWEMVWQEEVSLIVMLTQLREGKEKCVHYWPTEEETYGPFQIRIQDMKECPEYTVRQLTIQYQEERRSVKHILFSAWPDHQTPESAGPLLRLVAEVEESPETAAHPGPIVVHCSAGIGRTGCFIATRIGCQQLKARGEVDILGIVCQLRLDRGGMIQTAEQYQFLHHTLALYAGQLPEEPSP

[8] = target: T5, Aminopeptidase N (Plasmodium falciparum FcB1/Columbia, UniProt O96935); assay: P. falciparum M1AAP inhibitors, biochemical, fluorogenic H-Leu-NHMec substrate, 1536-well (AID 1445); parameters: species or system Plasmodium falciparum 3D7, 3D7
T5 sequence (O96935 whole entry): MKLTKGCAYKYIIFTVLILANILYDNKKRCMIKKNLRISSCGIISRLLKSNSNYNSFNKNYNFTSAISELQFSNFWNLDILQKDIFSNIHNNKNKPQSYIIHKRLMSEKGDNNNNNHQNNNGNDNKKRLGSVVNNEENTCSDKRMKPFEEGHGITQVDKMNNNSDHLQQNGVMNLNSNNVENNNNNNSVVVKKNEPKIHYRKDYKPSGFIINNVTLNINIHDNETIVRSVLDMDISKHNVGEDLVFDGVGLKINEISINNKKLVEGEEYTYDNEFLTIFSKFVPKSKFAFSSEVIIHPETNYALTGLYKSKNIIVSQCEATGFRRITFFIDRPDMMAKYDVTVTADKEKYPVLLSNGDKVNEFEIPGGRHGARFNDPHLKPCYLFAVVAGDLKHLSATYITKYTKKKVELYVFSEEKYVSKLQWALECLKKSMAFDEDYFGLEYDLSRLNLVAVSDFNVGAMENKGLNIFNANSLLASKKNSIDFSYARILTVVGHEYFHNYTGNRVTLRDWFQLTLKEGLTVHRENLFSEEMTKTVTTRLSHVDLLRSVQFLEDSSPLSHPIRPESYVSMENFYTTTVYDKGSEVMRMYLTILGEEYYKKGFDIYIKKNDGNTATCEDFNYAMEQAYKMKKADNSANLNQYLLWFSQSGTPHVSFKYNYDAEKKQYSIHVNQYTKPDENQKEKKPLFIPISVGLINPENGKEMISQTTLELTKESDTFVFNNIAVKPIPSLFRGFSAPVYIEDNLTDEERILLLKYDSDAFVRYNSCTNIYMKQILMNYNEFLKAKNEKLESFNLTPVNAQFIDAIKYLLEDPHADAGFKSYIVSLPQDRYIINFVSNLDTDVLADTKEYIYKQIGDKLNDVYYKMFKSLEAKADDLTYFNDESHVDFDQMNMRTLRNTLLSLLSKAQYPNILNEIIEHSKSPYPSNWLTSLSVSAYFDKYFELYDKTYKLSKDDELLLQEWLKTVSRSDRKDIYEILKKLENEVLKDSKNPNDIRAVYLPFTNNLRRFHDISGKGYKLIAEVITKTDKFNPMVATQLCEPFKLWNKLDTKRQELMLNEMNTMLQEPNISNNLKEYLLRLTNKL

[9] = target: T2, Tyrosine-protein phosphatase non-receptor type 22; assay type: functional; remark: listed apart in the source
[10] = target: T6, Dual specificity protein phosphatase 3 (Homo sapiens, UniProt P51452); assay: VHR1 phosphatase inhibitors, primary screen, biochemical, absorbance, uHTS (AID 1654)
T6 sequence (P51452 whole entry): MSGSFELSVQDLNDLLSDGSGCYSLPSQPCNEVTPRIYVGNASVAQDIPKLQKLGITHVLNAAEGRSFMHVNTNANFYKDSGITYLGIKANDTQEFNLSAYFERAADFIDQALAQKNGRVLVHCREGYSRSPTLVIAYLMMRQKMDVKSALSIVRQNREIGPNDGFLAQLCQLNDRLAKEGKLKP

[11] = target: T4, Tyrosine-protein phosphatase non-receptor type 7; assay: HTS HePTP Fluorescent Assay using OMFP substrate for In Vitro dose response studies. [Related pubchem assays (depositor defined):AID1059, AID1077, AID1784, AID2068, AID2085, AID435032, AID521]; assay type: functional
[12] = target: T6, Dual specificity protein phosphatase 3; assay: VHR1 phosphatase inhibitors, biochemical (AID 1878)
[13] = target: T2, Tyrosine-protein phosphatase non-receptor type 22; assay: inhibitors of LYP phosphatase, biochemical, fluorescence intensity, uHTS (AID 1779)
[14] = target: Lysine-specific demethylase 4A (Homo sapiens, UniProt O75164); assay: JMJD2A histone demethylase inhibitors, dose response, selectivity assay for GASC-1 inhibitor project, biochemical, DELFIA europium, cherry-picked samples (AID 488840)
Lysine-specific demethylase 4A, sequence (O75164 whole entry): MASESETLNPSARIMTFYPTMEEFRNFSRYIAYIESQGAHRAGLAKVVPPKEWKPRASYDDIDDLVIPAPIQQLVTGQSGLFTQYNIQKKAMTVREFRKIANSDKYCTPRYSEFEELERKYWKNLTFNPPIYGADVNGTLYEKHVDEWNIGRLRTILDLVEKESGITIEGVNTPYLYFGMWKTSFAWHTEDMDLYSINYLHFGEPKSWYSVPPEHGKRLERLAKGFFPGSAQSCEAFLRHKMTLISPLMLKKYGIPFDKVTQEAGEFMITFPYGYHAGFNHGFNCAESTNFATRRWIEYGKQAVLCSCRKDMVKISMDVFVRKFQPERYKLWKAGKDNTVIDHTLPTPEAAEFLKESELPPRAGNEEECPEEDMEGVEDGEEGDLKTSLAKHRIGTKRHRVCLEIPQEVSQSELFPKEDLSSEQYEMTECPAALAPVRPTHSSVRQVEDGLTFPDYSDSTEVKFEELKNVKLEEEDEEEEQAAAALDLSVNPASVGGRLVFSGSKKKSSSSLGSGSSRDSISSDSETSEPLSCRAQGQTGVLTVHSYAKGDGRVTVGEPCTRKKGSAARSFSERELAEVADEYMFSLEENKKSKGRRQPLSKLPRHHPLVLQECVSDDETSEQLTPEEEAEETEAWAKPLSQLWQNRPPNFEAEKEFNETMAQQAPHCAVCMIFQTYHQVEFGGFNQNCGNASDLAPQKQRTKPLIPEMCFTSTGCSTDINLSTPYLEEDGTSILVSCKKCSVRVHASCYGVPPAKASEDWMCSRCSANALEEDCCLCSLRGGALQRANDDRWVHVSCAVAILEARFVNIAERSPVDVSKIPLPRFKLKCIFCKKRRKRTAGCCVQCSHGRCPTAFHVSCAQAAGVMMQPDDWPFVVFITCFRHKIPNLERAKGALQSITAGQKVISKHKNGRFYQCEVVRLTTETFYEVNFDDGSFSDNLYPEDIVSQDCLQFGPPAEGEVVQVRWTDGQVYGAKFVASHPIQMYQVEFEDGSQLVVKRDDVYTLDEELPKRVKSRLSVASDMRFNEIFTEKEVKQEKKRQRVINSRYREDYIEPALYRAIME

[15] = target: T7, Lysine-specific demethylase 4C (Homo sapiens, UniProt Q9H3R0); assay: GASC-1 (JMJD2C) histone demethylase inhibitors, dose response, biochemical, DELFIA europium, cherry-picked samples (AID 488835); assay type: functional
T7 sequence (Q9H3R0 whole entry): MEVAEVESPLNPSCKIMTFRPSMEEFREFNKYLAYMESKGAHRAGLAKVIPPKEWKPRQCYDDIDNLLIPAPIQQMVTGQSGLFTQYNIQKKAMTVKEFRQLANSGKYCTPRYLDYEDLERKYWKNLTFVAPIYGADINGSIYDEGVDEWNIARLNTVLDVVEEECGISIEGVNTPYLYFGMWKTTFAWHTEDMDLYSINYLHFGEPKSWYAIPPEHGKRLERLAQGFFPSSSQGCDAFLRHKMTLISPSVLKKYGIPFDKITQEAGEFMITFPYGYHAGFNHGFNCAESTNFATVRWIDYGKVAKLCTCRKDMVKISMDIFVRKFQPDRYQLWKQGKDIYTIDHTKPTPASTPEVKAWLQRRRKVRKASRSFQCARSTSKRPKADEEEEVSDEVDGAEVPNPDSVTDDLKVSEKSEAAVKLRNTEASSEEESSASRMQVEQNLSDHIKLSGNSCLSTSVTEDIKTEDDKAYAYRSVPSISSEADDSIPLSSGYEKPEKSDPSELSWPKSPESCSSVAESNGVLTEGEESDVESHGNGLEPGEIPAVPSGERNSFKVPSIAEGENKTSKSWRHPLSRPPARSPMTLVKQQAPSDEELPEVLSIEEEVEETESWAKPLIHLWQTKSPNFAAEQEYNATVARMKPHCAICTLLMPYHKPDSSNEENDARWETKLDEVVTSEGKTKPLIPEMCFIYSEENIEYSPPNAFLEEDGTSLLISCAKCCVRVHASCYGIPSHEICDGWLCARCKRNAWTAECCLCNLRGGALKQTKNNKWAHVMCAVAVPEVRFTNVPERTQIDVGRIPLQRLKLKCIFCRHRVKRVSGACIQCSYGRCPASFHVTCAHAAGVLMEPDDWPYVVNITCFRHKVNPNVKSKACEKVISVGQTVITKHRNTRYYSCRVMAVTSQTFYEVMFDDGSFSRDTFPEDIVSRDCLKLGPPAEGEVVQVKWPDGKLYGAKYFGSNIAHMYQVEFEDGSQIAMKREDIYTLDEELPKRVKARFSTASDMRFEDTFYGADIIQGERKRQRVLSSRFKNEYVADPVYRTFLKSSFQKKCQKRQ

[16] = target: Large T antigen (Simian virus 40, UniProt P03070); assay type: functional, Betapolyomavirus macacae;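 further: Confirmatory-stage PubChem screen for compounds that inhibit SV40 T antigen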
Large T antigen, sequence (P03070 whole entry): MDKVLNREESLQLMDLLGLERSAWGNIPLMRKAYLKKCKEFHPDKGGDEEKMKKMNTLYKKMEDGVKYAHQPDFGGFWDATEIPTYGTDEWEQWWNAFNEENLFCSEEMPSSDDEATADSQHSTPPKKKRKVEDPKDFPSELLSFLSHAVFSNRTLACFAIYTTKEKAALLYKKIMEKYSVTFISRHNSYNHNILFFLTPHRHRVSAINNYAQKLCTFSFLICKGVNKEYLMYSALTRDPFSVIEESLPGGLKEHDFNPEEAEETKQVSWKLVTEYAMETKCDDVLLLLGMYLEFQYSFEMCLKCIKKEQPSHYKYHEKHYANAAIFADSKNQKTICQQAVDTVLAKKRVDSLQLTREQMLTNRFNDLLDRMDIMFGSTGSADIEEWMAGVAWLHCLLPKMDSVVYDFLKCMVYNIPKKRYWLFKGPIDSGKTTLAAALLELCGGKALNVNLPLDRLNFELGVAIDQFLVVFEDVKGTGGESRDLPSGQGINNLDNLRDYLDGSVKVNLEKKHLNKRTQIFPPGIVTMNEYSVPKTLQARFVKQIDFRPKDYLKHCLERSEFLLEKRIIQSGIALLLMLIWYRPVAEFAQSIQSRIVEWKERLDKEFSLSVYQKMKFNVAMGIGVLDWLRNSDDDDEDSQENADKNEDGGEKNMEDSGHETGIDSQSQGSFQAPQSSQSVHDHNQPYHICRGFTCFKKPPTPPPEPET

[17] = target: Albumin (Bos taurus, UniProt P02769); assay: Counterscreen for inhibitors of T-cell receptor (TCR)-CD3 interaction: Fluorescence-based biochemical high throughput dose response assay to identify inhibitors of T-cell receptor (TCR)-CD3 interaction using a TAMRA-labeled BSA probe.; assay type: functional
Albumin, sequence (P02769 whole entry, the tested form may be a part): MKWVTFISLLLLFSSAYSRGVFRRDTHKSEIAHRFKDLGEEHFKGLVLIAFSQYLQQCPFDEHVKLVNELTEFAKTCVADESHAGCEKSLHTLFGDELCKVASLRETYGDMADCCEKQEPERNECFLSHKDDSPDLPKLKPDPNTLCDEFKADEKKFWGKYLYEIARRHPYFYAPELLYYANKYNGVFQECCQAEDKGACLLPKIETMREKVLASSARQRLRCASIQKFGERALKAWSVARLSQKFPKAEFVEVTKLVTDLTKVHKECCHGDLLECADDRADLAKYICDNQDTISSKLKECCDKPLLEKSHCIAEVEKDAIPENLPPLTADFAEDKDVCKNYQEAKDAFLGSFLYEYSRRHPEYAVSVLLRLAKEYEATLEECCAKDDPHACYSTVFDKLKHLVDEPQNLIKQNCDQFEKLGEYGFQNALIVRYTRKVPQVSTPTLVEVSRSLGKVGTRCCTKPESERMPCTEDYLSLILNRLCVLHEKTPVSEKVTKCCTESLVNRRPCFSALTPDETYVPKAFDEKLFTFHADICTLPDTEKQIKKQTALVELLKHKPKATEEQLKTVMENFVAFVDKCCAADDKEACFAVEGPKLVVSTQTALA

[18] = target: T8, Carboxy-terminal domain RNA polymerase II polypeptide A small phosphatase 1 (Homo sapiens, UniProt Q9GZU7); assay: inhibitors of CTDSP1, concentration-response testing, biochemical assay, absorbance-based, actives from ultra-high-throughput screening (AID 540297); assay type: functional
T8 sequence (Q9GZU7 whole entry): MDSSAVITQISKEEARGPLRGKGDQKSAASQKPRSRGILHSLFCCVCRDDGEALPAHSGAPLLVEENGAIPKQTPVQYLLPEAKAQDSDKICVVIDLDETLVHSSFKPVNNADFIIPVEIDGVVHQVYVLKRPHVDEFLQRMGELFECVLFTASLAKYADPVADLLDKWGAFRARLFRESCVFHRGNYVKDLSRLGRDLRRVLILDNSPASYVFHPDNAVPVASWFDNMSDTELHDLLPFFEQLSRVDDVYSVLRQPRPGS

Glyceraldehyde-3-phosphate dehydrogenase, sequence (P04406 whole entry): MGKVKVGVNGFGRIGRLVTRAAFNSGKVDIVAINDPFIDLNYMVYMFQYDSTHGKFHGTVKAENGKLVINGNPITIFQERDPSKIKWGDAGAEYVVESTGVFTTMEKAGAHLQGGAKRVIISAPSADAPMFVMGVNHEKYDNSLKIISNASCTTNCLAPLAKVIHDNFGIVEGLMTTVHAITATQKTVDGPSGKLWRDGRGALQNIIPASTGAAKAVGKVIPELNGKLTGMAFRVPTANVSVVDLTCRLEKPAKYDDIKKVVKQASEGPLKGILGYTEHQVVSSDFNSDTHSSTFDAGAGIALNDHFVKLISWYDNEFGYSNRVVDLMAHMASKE

Oc1ccccc1-c1n[nH]c(-c2ccccc2O)n1
IC50 [1]: > 100 µM (not active)
IC50 [2]: > 100 µM (inactive)
IC50 [3]: > 100 µM (inactive)

COc1ccc(/N=C2\S/C(=C\c3ccc(OCC(=O)O)cc3)C(=O)N2CCc2c[nH]c3ccccc23)cc1
IC50 [4]: > 99 µM (inactive)
IC50 [5]: < 1.24 µM (active)
IC50 [6]: > 158 µM (not active)
IC50 [7]: 2.52 µM (active)
IC50 [8]: 75.7 µM (active)
IC50 [9]: < 1.24 µM (active)
IC50 [10]: 3.49 µM (active)
IC50 [11]: > 99 µM (inactive)
IC50 [12]: 2.43 µM (active)
IC50 [13]: > 99 µM (inactive)

COc1ccc(NN=Nc2nc3c(=O)n(C)c(=O)n(C)c3[nH]2)cc1
AC50 [14]: > 60 µM (inactive)
AC50 [15]: 8.08 µM (active)
IC50 [16]: 36.8 µM (active)

O=C1C2CC=CCC2C(=O)N1c1nnc(Cc2ccccc2)[nH]1 (stereo not drawn)
IC50 [1]: > 100 µM (not active)
IC50 [2]: 169 nM (active) and 126 nM (active) and 172 nM (active)
IC50 [3]: 2.04 µM (active) and 3.25 µM (active)

Cc1ccc(C(=O)NNC(=O)c2ccc3ccccc3c2O)cc1
IC50 [17]: > 94 µM (inactive)
AC50 [14]: 6.59 µM (active)
AC50 [15]: 8.8 µM (active)
IC50 [18]: 7.74 µM (active)
